Experimental findings from patent US20220411525A1, “BCMA AS A TARGET FOR T CELL REDIRECTING ANTIBODIES IN B CELL LYMPHOMAS” (Janssen Pharmaceutica NV, priority 2021, published 2022) are described below.

Test [1] relates to B cell malignancy cell lines. As to the kind of experiment: Soluble BCMA ELISA in supernatants of cell lines. The format is cell-based. The settings on record: 100 nM, 24 or 48h, both time points. The protocol: (§1) To evaluate whether other malignancies besides multiple myeloma (MM) can potentially be targeted by BCMA directed immunotherapy, B cell malignancy cell lines were assessed for BCMA expression by flow cytometry. […] Per FIG. 1A, B cell malignancy cell lines were cultured and basal levels of BCMA were assessed by flow cytometry and compared to isotype controls. (n=3-8). Dotted line indicates no increase compared to isotype control. In accordance with FIG. 1B, cell lines were treated for 24-48h with 100nM γ-secretase inhibitor or with medium control and BCMA was assessed by flow cytometry. Values are represented as fold increase compared to 0 nM γ-secretase inhibitor. (n=3-12) Dotted line indicates no increase compared to 0 nM γ-secretase inhibitor. FIG. 1C represents the results of an asssessment of soluble BCMA by ELISA in supernatants of B cell malignancy cell lines after treatment with 0 nM or 100 nM γ-secretase inhibitor for 24-48 h. (n=2). […] The P value was calculated by paired t test of Wilcoxon test (FIG. 1A-1B) or simple linear regression (FIG. 1E). […]
(§2) Since BCMA is known to be cleaved off by γ-secretase, it was evaluated whether inhibition of this enzyme would lead to enhanced BCMA levels on these B cell lines. […]
sBCMA ELISA. […] After 24 or 48 h supernatants were harvested and stored at −20° C. soluble BCMA (sBCMA) in supernatants were measured by ELISA using antibody pairs for BCMA.

A further test concerns primary CLL cells. Briefly: Viability of CLL cells under γ-secretase inhibition. In kind it is cell-based, human. The settings on record: 100 nM γ-secretase inhibitor. The protocol: Viability of CLL cells was not affected by the inhibitor (FIG. 8A). No difference in BCMA levels, before or after γ-secretase inhibitor treatment, was observed between CLL samples with mutated and unmutated immunoglobulin heavy chain variable region gene (IgHV) status (FIG. 2C-D). Low but measurable mRNA levels of BCMA expression could be detected on CLL cells (FIG. 2E). Despite low BCMA detection by flow cytometry, sBCMA could be detected in supernatants of CLL cells, already after 24 h of culturing, which increased after 48 h (FIG. 2F).

Test [2] deals with B cell malignancy cell lines. As to the kind of experiment: BCMA mRNA relative to GAPDH by qPCR in cell lines. The settings on record: 100 nM, 24 h, prior and after γ-secretase inhibition. In kind it is cell-based. The protocol:
as §1, with “inhibitor.” for “inhibitor. FIG. 1C represents the results of an asssessment of soluble BCMA by ELISA in supernatants of B cell malignancy cell lines after treatment with 0 nM or 100 nM γ-secretase inhibitor for 24-48 h. (n=2).”
as §2
BCMA characterization by flow cytometry and quantitative polymerase chain reaction. […] After 24 or 48 h BCMA was detected by flow cytometry as described above. Relative expression was calculated compared to isotype controls. […]

Test [3] concerns B cell malignancy cell lines. As to the kind of experiment: BCMA membrane level by flow cytometry after γ-secretase inhibition. The format is cell-based. The settings on record: 100nM, 24-48 h, all B cell malignancy cell lines. The protocol: as §1, §2
(§3) Flow cytometry. […] After antibody staining, samples were washed using PBA and acquired on BD FACS Canto or LSR Fortessa flow cytometer and analysed with FlowJo v10. […]

In test [4] the test system is B cell malignancy cell lines. Briefly: Viability of cell lines under γ-secretase inhibition. The note with it: 100nM γ-secretase inhibitor, 24-48 h. The format is cell-based. The protocol:
Since BCMA is known to be cleaved off by γ-secretase, it was evaluated whether inhibition of this enzyme would lead to enhanced BCMA levels on these B cell lines. To assess this, the different B cell malignancy lines were incubated for 24-48 h with 100nM γ-secretase inhibitor (Ly411575) and BCMA fold increase was compared to unstimulated cells. Viability of the different cell lines was not affected by γ-secretase inhibition (FIG. 7A). […] Besides the cell lines which already had high basal levels of BCMA (U266, RPMI-8226, MWCL1 and BCWM.1) also cell lines which had low basal expression of BCMA, such as JeKo-1 and OCI-Ly7 were able to upregulate BCMA after γ-secretase inhibition (FIG. 1B). […] This was studied by determination of soluble BCMA (sBCMA) levels in supernatants of B cell malignancy cell lines, which were cultured for 24 or 48h in the absence or presence of γ-secretase inhibitor. Indeed, sBCMA levels were detectable upon culture of different selected cell lines (except for Jurkat), and increased upon longer culture times (FIG. 1C).

For another test, the system named is Jurkat cells. As to the kind of experiment: BCMA membrane level by flow cytometry after γ-secretase inhibition, Jurkat. The format is cell-based. The note with it: 100nM, 24-48 h. The protocol: as §1, §2, §3
(In general: A flow cytometer gives signals particle by particle.)

Structures are written as SMILES.

For the compound `C[C@H](NC(=O)[C@@H](O)c1cc(F)cc(F)c1)C(=O)N[C@@H]1C(=O)N(C)c2ccccc2-c2ccccc21` [Ly411575], in test [1], the “soluble BCMA (sBCMA) levels in supernatants” value is “strongly reduced”. The “Viability of CLL cells” value with primary CLL cells is reported as “not affected”. In addition, the “BCMA mRNA levels” value in test [2] is recorded as “remained equal”. Further, the “BCMA level after γ-secretase inhibition compared to unstimulated cells” value in test [3] is given as “increased BCMA level”. For the same compound, the “Viability of the different cell lines” value in test [4] was “not affected”. The “BCMA level after γ-secretase inhibition” value in the test on Jurkat cells is “no upregulation of BCMA”.
